From patent US20240317826A1, “COMPOSITIONS AND METHODS FOR TREATING AND/OR I[…] AGENT FOR TREATING HIV-1 INFECTIONS” (priority 2021, published 2024) come the findings set out here.

Assay [1] relates to HIV-1 virion morphogenesis. In words: TEM analysis of morphology of virions produced in the presence of stapled peptides. It counts as cell-based. The settings on record: ~200 virions each. From the text: FIG. 12A-FIG. 12C show effects of stapled peptides on virion morphogenesis and incorporation of INI1. […] The middle panel is the expanded version and the lower panel represents the carton of the two viral particles from the middle panel. Note the empty capsid shell and eccentric electron dense material, typical of morphologically defective virions. […] About 200 virions each were scored to quantify four different types of morphological forms—Conical (Co), Eccentric (Ec), Immature (Im) and Unclear (Uc).
To determine if the virions produced in the presence of stapled peptides have similar defect in virion morphogenesis, we carried out TEM analysis of the virions (˜200 each).

A further assay has as its target T1, IN-INI1 interaction (Human immunodeficiency virus type 1 group M subtype B, UniProt P04585).
T1 construct: made in house; host or cells: bacteria (E. coli inferred from the pGEX vector)
The experiment in a line: Alpha interaction assay: effect of stapled peptides on IN-INI1 interaction. Type of assay: binding, HIV-1. Particulars: in vitro. As for the experimental part: FIG. 8A-FIG. 8D show quantitative alpha interaction assay to determine the effect of stapled peptides on the interaction of IN and IN-CTD with INI1 and INI1183-304 or TAR RNA. […] Fixed concentrations of GST-IN, 6His-INI1, and TAR RNA were incubated with increasing concentration of stapled peptides and the interaction was detected as Alpha Score. The IC50 values were determined by fitting the data to a four-parameter dose-response curve using Graph Pad prism. All the graphs represent the average of three independent experiments (Mean+/−SEM).
AlphaScreen proximity assay to detect the protein-protein and protein-RNA interactions. AlphaScreen assay was carried out using PerkinElmer Alpha-Lisa-6His Acceptor beads (Catalogue #AL128C), Alpha-Screen-GST donor beads (Catalogue #6765300), GST-tagged and His-tagged proteins for protein-protein interactions; and Alpha-Screen Streptavidin donor beads (Catalogue #6760002 S), Alpha-Lisa-GST acceptor beads (Catalogue #AL110C), Biotin-labeled RNA and GST-tagged proteins for protein-RNA interactions. The reaction was carried out according to the manufacturer's protocol in a reaction buffer contacting (25 mM HEPES pH 7.4, 100 mM NaCl (or 500 mM NaCl), 1 mM DTT, 1 mM MgCl2 and BSA 1 mg ml/ml). The mixture of proteins or protein and RNA were incubated for 1 hr at room temperate with shaking in a multi micro-plate shaker and then 20 ag ml/ml accepter beads were added and incubated for additional 1 h with shaking. Finally, 20 ag ml^−1 of donor beads were added and further incubated for 1 hr. The Alpha score readings were measured using Alpha-compatible Envision 2105 multi-plate reader (Perkin-Elmer). All the experiments related to this method were carried out 3 to 5 times and data were analyzed by using Graph Pad Prism 9 version 9.0.0 (GraphPad Software, CA). The RNA sequences used in this assay are listed in the Table 6d and were obtained from Integrated DNA technology.
These peptides were tested for their ability to disrupt the interaction between IN-INI1 and IN-TAR RNA in vitro.

For the next assay, the target named is T2, IN/TAR RNA complex (Human immunodeficiency virus type 1 group M subtype B, UniProt P04585).
T2 construct: expressed in transfected cells; host or cells: 293T cells
In words: RNA-co-IP in 293T cells: TAR RNA bound to YFP-IN. It counts as cell-based, HIV-1. From the text:
(§1) Panels d-g show the input RNA and protein levels within transfected cells: the RT-PCR analysis of input TAR RNA levels (panel d); Immunoblot analysis of input HA-INI1 (panel e); input YFP-IN (panel f); and GAPDH level for loading control (panel g). Lane 1 is RNA-co-IP using isotype IgG control antibodies and lanes 2-7 are RNA-co-IP using anti-GFP antibodies to pull down IN. There is ˜1000 fold inhibition of RNA and INI1 binding to IN in the presence of SP-38 peptide (compare lane 6 to lane 5).
For RNA-co-IP, […] were transfected with pCMV-Tat and pLTR-luc plasmids along with pYFP-IN and pCGN-INI1. Immunopreciptation was carried out as above using α-GFP (Cell Signal, Catalogue #2555; Lot #8; 5 ag/sample) antibodies. The immunecomplexes were then split into two and RNA was isolated from one half using Trizol reagent (Invitrogen Catalogue #15596026) and subjected to qRT-PCR using Early RT primers. The other half was subjected to immunoblot analysis.
(§2) To determine if stapled peptides can inhibit interaction of IN with TAR RNA in cells, we carried out RNA-co-IP experiments (FIG. 8e). YFP-IN and TAR RNA were expressed by co-transfecting plasmids pYFP-fN, pLTIR-luc and pTat in 293T cells. Cells were treated with SP-38 or SP-83 (D225G mutant) peptides. After transfection, the cell lysates were treated with DNaseI and subjected to immunoprecipitation (IP) using α-GFP antibodies to pull down YFP-IN and associated complexes. RNA was separated from the immune complexes and subjected to RT-PCR to detect bound TAR RNA (FIG. 8e, panel a). Immunoblot analysis of bound proteins were carried out using: α-HA to detect bound HA-INI1 (FIG. 8e, panel b) and α-GFP to detect YFP-IN (FIG. 8e, panel c). RT-PCR of the RNA isolated from cell lysate was used as input control (FIG. 8e, panel d). Immunoblot analysis of total proteins from cell lysates as input control were carried out using α-HA to detect input HA-INI1 (FIG. 8e, panel e), α-GFP to detect input YFP-IN (FIG. 8e, panel f), and α-GAPDH to detect GAPDH as loading control (FIG. 8e, panel g). […] Expression of both GFP-IN and TAR RNA in the cells led to successful RNA-co-IP by α-GFP antibodies (FIG. 8e, lane 5).

Assay [2] concerns HIV-1 particle production. The experiment in a line: Particle production (p24) in 293T cells transfected with pNL4-3 in the presence of stapled peptides. The settings on record: p24 in virions and cell lysates. Type of assay: cell-based. As to the method:
FIG. 10A-FIG. 10B show the mechanism of HIV-1 inhibition by Stapled peptides. […] (1) Transfection of pNL4-3 plasmid in to 293T cells in the presence of stapled peptides and determine the particle production by analyzing p24 in the supernatant and cell lysates. (2) Virions produced are analyzed for their infectivity in the absence of stapled peptides. (3) Virions are subjected to Transmission Electron Microscopy (TEM) to determine the particle morphogenesis. (4) Purified and concentrated virions are subjected to Western blot analysis for the presence of INI1.
We hypothesized that INI1-derived Stapled peptides and drugs target IN and disrupt IN/RNA and IN/INI1 interactions. […] To test this hypothesis and to determine the mechanism of inhibition by stapled peptides, we tested the effect of stapled peptides on late events (production of HIV-1 particles and particle morphogenesis) and further tested the infectivity of particles that are produced (FIG. 10a).

The next assay has as its target T3, IN/INI1 complex (Human immunodeficiency virus type 1 group M subtype B, UniProt P04585).
T3 construct: expressed in transfected cells; host or cells: 293T cells
In words: co-IP in 293T cells: HA-INI1 bound to YFP-IN. It counts as cell-based, HIV-1.
Description: as §1, §2

Entries after “also recorded” stand apart in the source; their conditions may differ. Read-outs that look alike come from different tables or passages of the source.

For the substance “lys-Leu-Met-Thr-Pro-Glu-Met-Phe-S5-Glu-Ile-Leu-S5-Cys-Asp-Leu-Asn [SP38]”, the virion particle morphology entry in assay [1] is “large number of morphologically defective “eccentric” particles and very few conical capsids; also recorded: increased proportion of eccentric virions”. Besides, the “IC50, inhibition of IN-INI1 interactions” value on IN-INI1 interaction is “low nanomolar”. In addition, the “inhibition of IN/RNA complex formation within cells” value at IN/TAR RNA complex is listed as “potently inhibits”. Besides, the “effect on particle production” value in assay [2] is recorded as “did not affect”. The “inhibition of IN/INI1 complex formation within cells” value at IN/INI1 complex was “potently inhibits”. Besides, the “inhibition of INI1 binding to IN” value at IN/INI1 complex (immunoblot of bound HA-INI1) is listed as approximately 1000 fold.

Take “lys-Leu-Met-Thr-Pro-Glu-Met-Phe-S5-Glu-Ile-Leu-S5-Cys-Gly-Leu-Asn [SP83]”: on IN-INI1 interaction, the “inhibition of IN-INI1 interactions” value was “not”. The figures for the “inhibition of IN/RNA complex formation within cells” value against IN/TAR RNA complex and at IN/TAR RNA complex (listed as SP83 (D225G)) were “not” and “does not inhibit”, respectively. The “inhibition of RNA binding to IN in RNA-co-IP” value at IN/TAR RNA complex (RT-PCR of bound TAR RNA) is “not”. In addition, the “inhibition of IN/INI1 complex formation within cells” value against IN/INI1 complex is recorded as “not”; at IN/INI1 complex (listed as SP83 (D225G)), “does not inhibit”.
